Test results taken from article PMC7345836, “Absorption and Tissue Distribution of Siphonaxanthin from Green Algae” (Marine Drugs, 2020).

Tests used:
Caco-2 cells = experiment: Uptake and metabolism of micellar siphonaxanthin by differentiated Caco-2 cells; type: in vitro ADME, human; conditions: Caco-2 cells incubated with 1 nmol/well siphonaxanthin solubilized micelles for 1, 3, 6 and 24 h
Procedure: Caco-2 cells obtained from the RIKEN Gene Bank (Tsukuba, Japan) were cultured in Dulbecco’s Modified Eagle’s Medium (DMEM) containing 10% fetal bovine serum (FBS), 1% penicillin-streptomycin (PS), and 1% non-essential amino acids in a humidified atmosphere of 95% air and 5% CO2 at 37 °C. For differentiation, cells were seeded in 12-well plates at a density of 2.0 × 10^5 cells/well in 1 mL DMEM medium described above and allowed to differentiate until day 22 from seeding. The medium was regularly changed three times a week. Experiments were performed at day 22 post-seeding on 12-well plates.
Siphonaxanthin solubilized in micelles was added to the medium for treatment, and micelle formation was performed as previously described. […] The concentration of micellar carotenoid was determined as 1.0 ± 0.05 μmol/L by HPLC before use in the following experiment.
The cell monolayers on 12-well plates were rinsed with the serum-free medium and then incubated in 1 mL of medium containing micellar siphonaxanthin. […] The residue was dissolved in methanol and subjected to quantitative and qualitative analysis. […] The concentration of siphonaxanthin in the medium was also analyzed. An aliquot of the medium was mixed with 4-fold methanol and subjected to the above HPLC analysis for quantify. […]

[1] = Tissue distribution and accumulation of siphonaxanthin and its metabolites in mice after 16-day dietary supplementation (HPLC); type: in vivo; conditions: ICR mice
Procedure: (§1) All experimental animal protocols were approved by the Animal Experimentation Committee of Kyoto University, Japan, for the care and use of experimental animals (Approval No. 26–35). Male ICR mice (7 weeks of age) were purchased from Japan SLC, Inc. (Hamamatsu, Japan). All mice were housed individually and maintained on an alternating 12-h light/dark cycle at a temperature of 23 ± 1 °C and free access to drinking water and chow (Oriental Yeast Co., Ltd., Tokyo, Japan). After an acclimatization period of 1 week, the mice were randomly divided into control and siphonaxanthin groups (n = 4 per group). Mice in the control group were fed an AIN-93G diet. The siphonaxanthin mouse group was fed the AIN-93G diet with siphonaxanthin supplementation, 65.79 nmol/g of diet (0.004%). The total food intake and body weight were recorded daily. After dietary supplementation for 16 days, the mice were anesthetized with isoflurane. Blood was collected from the caudal vena cava. Plasma was prepared by centrifuging at 400 g for 15 min at 4 °C. The tissues were rapidly removed, weighed, and immediately frozen in liquid nitrogen, and stored at −80 °C until use.
Carotenoids were then extracted from the plasma and tissues. Briefly, aliquots of tissue samples (0.2 g) were homogenized in a 9-fold volume of 0.9% NaCl saline with a homogenizer dispenser (T10 basic ULTRA-TURRAX, IKA). Plasma samples were diluted with a 3-fold volume of Milli-Q water. The resultant tissue homogenates (0.9 mL) or diluent plasma samples (0.9 mL) were mixed with 3 mL of dichloromethane/methanol (2:1, v/v) to extract carotenoids. The samples were extracted three times, and the dichloromethane layer was collected after centrifugation at 1690 g at 4 °C for 10 min. After evaporation under nitrogen, the residue was resuspended in 20 μL of dichloromethane and methanol (1:1, v/v) for HPLC analysis.
HPLC analysis was performed using a Prominence LC system (Shimadzu, Kyoto, Japan) connected to a photodiode array detector (SPD-M20A, Shimadzu, Kyoto, Japan), followed by an ion trap-time of flight mass spectrometer (LCMS-IT-TOF, Shimadzu, Kyoto, Japan) equipped with an atmospheric pressure chemical ionization (APCI) source or electrospray ionization (ESI) source. Siphonaxanthin was separated on a TSK gel ODS-80Ts QA column (2.0 × 250 mm, 5 μm, Tosoh, Tokyo, Japan). The binary gradient mobile phase was methanol/water (83:17, v/v) containing 0.1% ammonium acetate as mobile phase A and ethyl acetate/methanol (30:70, v/v) containing 0.1% ammonium acetate as mobile phase B. The column was eluted at a flow rate of 0.2 mL/min using the following gradients: 0–30 min, 0% B; 30–45 min, 0–100% B; 45–60 min, 100% B; 60–65 min, 100–0% B; 65–70 min, 0% B. Siphonaxanthin was detected at 450 nm. The APCI source was heated at 200 °C, and the probe was maintained at 400 °C. Nitrogen was used as sheath gas at 2.0 L/min, and drying gas was used at 25 kPa. Mass spectra were recorded in the positive ion mode. For the ESI source, sheath gas was set at 1.5 L/min, and drying gas was used at 120 kPa. A spray voltage of 4.5 kV was used for positive ionization. The peak identities of siphonaxanthin and its possible metabolites were further confirmed from their characteristic UV-vis spectra and their positive ions. Siphonaxanthin was quantified from its peak area at 450 nm using an external standard calibration curve with purified siphonaxanthin. Due to the unavailability of standards, possible metabolites of siphonaxanthin were estimated from the siphonaxanthin standard curve.

[2] = Body weight, food intake and tissue weight of ICR mice fed siphonaxanthin diet; type: in vivo
Procedure: as §1

[3] = siphonaxanthin diet vs control diet, 16 days

Q: What does the source list for `CC1=C[C@H](O)CC(C)(C)[C@H]1/C=C/C(C)=C/C=C/C(C)=C/C=C/C=C(C)/C=C/C=C(\CO)C(=O)CC1=C(C)C[C@@H](O)CC1(C)C` [Siphonaxanthin, 3,19,3’-Trihydroxy-7,8-dihydro-β,ε-caroten-8-one]?
A: Cellular concentration of siphonaxanthin (Caco-2 cells): rapidly and linearly increased until 3 h after incubation, and then gradually increased until 24 h; Concentration of siphonaxanthin in the medium (Caco-2 cells): decreased with increasing incubation time; Concentration in brain ([1]; Brain, 16-day diet with siphonaxanthin 65.79 nmol/g, mean ± SEM, n = 4, N.D., not detected): 0.4 ± 0.3 pmol/g; % of the total carotenoids in brain ([1]; Brain, 16-day siphonaxanthin diet): 100%; Concentration in colon ([1]; Colon, 16-day diet with siphonaxanthin 65.79 nmol/g, mean ± SEM, n = 4): 198 ± 24.5 pmol/g; % of the total carotenoids in colon ([1]; Colon, 16-day siphonaxanthin diet): 82.5%; % of the total carotenoids in epididymal WAT ([1]; Epididymal WAT, 16-day siphonaxanthin diet): 14.6%; Concentration in epididymal WAT ([1]; Epididymal white adipose tissue, 16-day diet with siphonaxanthin 65.79 nmol/g, mean ± SEM, n = 4, N.D., not detected): 27.8 ± 14.3 pmol/g; Concentration in heart ([1]; Heart, 16-day diet with siphonaxanthin 65.79 nmol/g, mean ± SEM, n = 4): 67.1 ± 25.2 pmol/g; % of the total carotenoids in heart ([1]; Heart, 16-day siphonaxanthin diet): 52.2%; Concentration in BAT ([1]; Interscapular brown adipose tissue, 16-day diet with siphonaxanthin 65.79 nmol/g, mean ± SEM, n = 4): 30.5 ± 11.4 pmol/g; % of the total carotenoids in BAT ([1]; Interscapular brown adipose tissue, 16-day siphonaxanthin diet): 41.7%; Concentration in kidney ([1]; Kidney, 16-day diet with siphonaxanthin 65.79 nmol/g, mean ± SEM, n = 4): 38.2 ± 15.7 pmol/g; % of the total carotenoids in kidney ([1]; Kidney, 16-day siphonaxanthin diet): 84.1%; Concentration in liver ([1]; Liver, 16-day diet with siphonaxanthin 65.79 nmol/g, mean ± SEM, n = 4): 37.1 ± 14.4 pmol/g; % of the total carotenoids in liver ([1]; Liver, 16-day siphonaxanthin diet): 18.7%; Concentration in lung ([1]; Lung, 16-day diet with siphonaxanthin 65.79 nmol/g, mean ± SEM, n = 4): 22.9 ± 8.2 pmol/g; % of the total carotenoids in lung ([1]; Lung, 16-day siphonaxanthin diet): 38.8%; % of the total carotenoids in mesenteric WAT ([1]; Mesenteric WAT, 16-day siphonaxanthin diet): 24.5%; Concentration in mesenteric WAT ([1]; Mesenteric white adipose tissue, 16-day diet with siphonaxanthin 65.79 nmol/g, mean ± SEM, n = 4): 110 ± 50.8 pmol/g; Concentration in muscle ([1]; Muscle, 16-day diet with siphonaxanthin 65.79 nmol/g, mean ± SEM, n = 4): 14.2 ± 7.5 pmol/g; % of the total carotenoids in muscle ([1]; Muscle, 16-day siphonaxanthin diet): 52.6%; Concentration in pancreas ([1]; Pancreas, 16-day diet with siphonaxanthin 65.79 nmol/g, mean ± SEM, n = 4): 46.1 ± 12.5 pmol/g; % of the total carotenoids in pancreas ([1]; Pancreas, 16-day siphonaxanthin diet): 45.4%; % of the total carotenoids in perirenal WAT ([1]; Perirenal WAT, 16-day siphonaxanthin diet): 13.3%; Concentration in perirenal WAT ([1]; Perirenal white adipose tissue, 16-day diet with siphonaxanthin 65.79 nmol/g, mean ± SEM, n = 4): 22.1 ± 12.0 pmol/g; % of the total carotenoids in plasma ([1]; Plasma, 16-day siphonaxanthin diet): 5.5%; Concentration in small intestine ([1]; Small intestine, 16-day diet with siphonaxanthin 65.79 nmol/g, mean ± SEM, n = 4): 3428 ± 1389 pmol/g; % of the total carotenoids in small intestine ([1]; Small intestine, 16-day siphonaxanthin diet): 79.5%; Concentration in spleen ([1]; Spleen, 16-day diet with siphonaxanthin 65.79 nmol/g, mean ± SEM, n = 4): 20.6 ± 3.4 pmol/g; % of the total carotenoids in spleen ([1]; Spleen, 16-day siphonaxanthin diet): 45.7%; Concentration in stomach ([1]; Stomach, 16-day diet with siphonaxanthin 65.79 nmol/g, mean ± SEM, n = 4, siphonaxanthin standard curve): 2054 ± 636 pmol/g; % of the total carotenoids in stomach ([1]; Stomach, 16-day siphonaxanthin diet): 94.0%; Concentration in testis ([1]; Testis, 16-day diet with siphonaxanthin 65.79 nmol/g, mean ± SEM, n = 4): 25.0 ± 10.0 pmol/g; % of the total carotenoids in testis ([1]; Testis, 16-day siphonaxanthin diet): 84.3%; concentration at 16 days ([1]; male, mouse, oral, 65.79 nmol/g of diet, Plasma, 16-day diet with siphonaxanthin 65.79 nmol/g, mean ± SEM, n = 4): 18.3 ± 4 nM; Body weight [2, 3]: not altered; Weight of the other tissues [2, 3]: did not significantly decrease; Weight of the spleen ([2]; siphonaxanthin diet vs control diet, 16 days, p < 0.05): significantly decreased; Food intake ([2]; siphonaxanthin vs control group, 16-day experimental period): not altered
